Columns and labels:
[1] = bilateral hippocampal sparing whole brain radiation with memantine; cited from earlier work
[2] = system: IDH-1 wild-type glioblastoma; assay: Case presentation: elderly glioblastoma patient treated with involved-field radiotherapy and concomitant daily TMZ; format: in vivo, human
From the text: A right-handed person had developed confusion, word-finding difficulty and slurred speech. These symptoms included making phone calls to their spouse and asking their non-sensible questions. They lost their words intermittently and forgot names of their family members on a number of occasions. They recounted old stories as if they were perseverating and answered questions in the affirmative without actually hearing the question. Their mood also became more irritable. Their past medical history was notable for a skull fracture after fall from horseback riding when they were a teenager. The patient had undergone a neurocognitive evaluation from a memory disorder clinic in a major academic medical center and they had been diagnosed with a non-specific memory disorder.
The patient underwent a gross total resection of the mass 4 days after the MRI. […] Immunohistochemical staining was negative for IDH-1 R132H mutation but positive for ATRX, GFAP, Olig-2 and p53.
The radiation administered consisted of standard external beam radiotherapy. The left temporal postsurgical cavity as well as the ipsilateral putamen and globus pallidus were included in the maximum 6,000 cGy isodose line (see FIG. 2). The brainstem was covered in the 3,000 cGy isodose line while the contralateral putamen and globus pallidus received up to 1,800 cGy of radiation.
They became more forgetful and developed imbalance. […]

In the case of `CC12CC3CC(C)(C1)CC(N)(C3)C2` [memantine], the “neurocognitive function versus traditional fractionated whole brain radiotherapy” value [1] is listed as “preserves neurocognitive function better”.
With `Cn1nnc2c(C(N)=O)ncn2c1=O` [TMZ, temozolomide] the “cognitive status after treatment” value ([2]; after radiation (up to 6,000 cGy) and TMZ, patient with diffuse Lewy body disease at autopsy) was “rapidly deteriorated” and the “haematological toxicity limiting chemotherapy” value ([2]; person, concomitant daily TMZ with involved-field radiotherapy, only two weeks of chemotherapy administered) was “low blood counts”.

Reference: patent US20250049785A1, “METHODS FOR THE TREATMENT OF GLIOBLASTOMA THAT MINIMIZE RADIATION DAMAGE IN SUSCEPTIBLE PATIENTS” (Rhode Island Hospital, priority 2021, published 2025)
